Among the data in patent US8017612B2, “Piperazine compound and use thereof as a HCV polymerase inhibitor” (priority 2006, dated 2011) are IC50 values, retold here.

The structures appear in SMILES notation. Bounds are passed on as bounds.

In assay [1] the target is T1, HCV polymerase (NS5B) type 1a (Hepatitis C virus genotype 1a, UniProt P26664).
T1 construct: made in house; host or cells: Escherichia coli (by the 'similar method' of the 1b enzyme)
In words: Assay of enzyme (HCV polymerase) inhibitory activity, type 1a enzyme. In kind it is biochemical, HCV type 1a (cloned from the blood of patients). The settings on record: HCV polymerase inhibitory activity (IC50), 1a, type 1a enzyme 1.5 μg/ml, 25° C., 60 min. A digest of the protocol: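 IC50 values derive from radioactivity of newly synthesized RNA with versus without test compound. The enzyme was C-terminally truncated type 1a NS5B, 1.5 μg/ml, run 60 min at 25° C with 3H-UTP-labelled nucleotides.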

Assay [2] concerns the target T2, HCV polymerase (NS5B) type 1b (Hepatitis C virus genotype 1b, UniProt P26663).
T2 construct: a region encoding NS5B (J Virol 1991 March, 65(3), 1105-13, 544 amino acids after deletion of 47 amino acids on the C-terminal); 6xHis (C); made in house; host or cells: Escherichia coli
The assay can be described thus: Assay of enzyme (HCV polymerase) inhibitory activity, type 1b enzyme. In kind it is biochemical, HCV BK strain (type 1b). Conditions: HCV polymerase inhibitory activity (IC50), 1b, type 1b enzyme 0.5 μg/ml, 25° C., 60 min. A digest of the protocol:
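Polymerase activity was followed as radiolabelled UTP incorporation by E. coli-expressed, His-tagged NS5B of HCV type 1b lacking its last 47 residues. Conditions: 2 μM UTP, 50 μM other NTPs, Mg2+ buffer at pH 7.5, 25 °C for 60 min. Inhibition relative to compound-free reactions gave IC50.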

With `CCC(F)(F)c1ccc(CNC(=O)[C@H]2CN(C(=O)Nc3nnc(C(C)(C)O)s3)CCN2S(=O)(=O)c2ccc(OC(F)(F)F)cc2)cc1` [Example 484, (R)-4-(4-trifluoromethoxy-benzenesulfonyl)-piperazine-1,3-dicarboxylic acid 3-[4-(1,1-difluoro-propyl)-benzylamide] 1-{[5-(1-hydroxy-1-methyl-ethyl)-[1,3,4]thiadiazol-2-yl]-amide}], the half-inhibitory concentration (IC50) (commonly the point on the concentration scale where inhibition reaches its midpoint) in assay [1] is 100 to 1000 nM; in assay [2], less than 100 nM.

With `CCCc1ccc(CNC(=O)[C@H]2CN(c3cnc(C(=O)O)cn3)CCN2S(=O)(=O)c2ccc(CC)cc2)c(Cl)c1` [Example 485, (R)-3-(2-chloro-4-propyl-benzylcarbamoyl)-4-(4-ethyl-benzenesulfonyl)-3,4,5,6-tetrahydro-2H-[1,2′]bipyrazinyl-5′-carboxylic acid], the 50% inhibitory concentration (IC50) in assay [1] and in assay [2] was less than 100 nM in each case.

`CCCc1ccc(CNC(=O)[C@H]2CN(c3cc(C)c(C(=O)OC)nn3)CCN2S(=O)(=O)c2ccc(OC(F)(F)F)cc2)cc1` [Example 486, 4-methyl-6-[(R)-3-(4-propyl-benzylcarbamoyl)-4-(4-trifluoromethoxy-benzenesulfonyl)-piperazin-1-yl]-pyridazine-3-carboxylic acid methyl ester]: the IC50 in assay [1] and in assay [2] was less than 100 nM in each case.

Take `CCCc1ccc(CNC(=O)[C@H]2CN(c3cc(C)c(C(=O)O)nn3)CCN2S(=O)(=O)c2ccc(OC(F)(F)F)cc2)cc1` [Example 487, 4-methyl-6-[(R)-3-(4-propyl-benzylcarbamoyl)-4-(4-trifluoromethoxy-benzenesulfonyl)-piperazin-1-yl]-pyridazine-3-carboxylic acid]: the IC50 in assay [1] and in assay [2] was less than 100 nM in each case.

Take `CCC(F)(F)c1ccc(CNC(=O)[C@H]2CN(C(=O)Nc3nnc(C)s3)CCN2S(=O)(=O)c2ccc(OC(F)(F)F)cc2)cc1` [Example 488, (R)-4-(4-trifluoromethoxy-benzenesulfonyl)-piperazine-1,3-dicarboxylic acid 3-[4-(1,1-difluoro-propyl)-benzylamide] 1-[(5-methyl-[1,3,4]thiadiazol-2-yl)-amide]]: the results for the IC50 in assay [1] and in assay [2] were 100 to 1000 nM and less than 100 nM, respectively.

As for `CCC(F)(F)c1ccc(CNC(=O)[C@H]2CN(C(=O)Nc3nnc(C(F)(F)F)s3)CCN2S(=O)(=O)c2ccc(OC(F)(F)F)cc2)cc1` [Example 489, (R)-4-(4-trifluoromethoxy-benzenesulfonyl)-piperazine-1,3-dicarboxylic acid 3-[4-(1,1-difluoro-propyl)-benzylamide] 1-[(5-trifluoromethyl-[1,3,4]thiadiazol-2-yl)-amide]], the IC50 in assay [1] and in assay [2] was more than 1000 nM in each case.

`CCC(F)(F)c1ccc(CNC(=O)[C@H]2CN(C(=O)Nc3ccnc(OC)c3)CCN2S(=O)(=O)c2ccc(OC(F)(F)F)cc2)cc1` [Example 490, (R)-4-(4-trifluoromethoxy-benzenesulfonyl)-piperazine-1,3-dicarboxylic acid 3-[4-(1,1-difluoro-propyl)-benzylamide] 1-[(2-methoxy-pyridin-4-yl)-amide]]: the IC50 in assay [1] is less than 100 nM; in assay [2], 100 to 1000 nM.

In the case of `CCC(F)(F)c1ccc(CNC(=O)[C@H]2CN(C(=O)Nc3ccnc(C(=O)OC(C)(C)C)c3)CCN2S(=O)(=O)c2ccc(OC(F)(F)F)cc2)cc1` [Example 491, 4-{[(R)-3-[4-(1,1-difluoro-propyl)-benzylcarbamoyl]-4-(4-trifluoromethoxy-benzenesulfonyl)-piperazine-1-carbonyl]-amino}-pyridine-2-carboxylic acid tert-butyl ester], the IC50 in assay [1] and in assay [2] was less than 100 nM in each case.

Consider `CC(=O)N1CCN(S(=O)(=O)c2ccc(C(C)C)cc2)[C@@H](C(=O)NCc2ccc(-c3csnn3)cc2)C1` [Example 492, (R)-4-acetyl-1-(4-isopropyl-benzenesulfonyl)-piperazine-2-carboxylic acid 4-[1,2,3]thiadiazol-4-yl-benzylamide], for which the values for the IC50 in assay [1] and in assay [2] were more than 1000 nM and 100 to 1000 nM, respectively.

Take `CC(C)c1ccc(CNC(=O)[C@H]2CN(c3cnn(CC(=O)O)c3)CCN2S(=O)(=O)c2ccc(OC(F)(F)F)cc2)cc1` [Example 493, {4-[(R)-3-(4-isopropyl-benzylcarbamoyl)-4-(4-trifluoromethoxy-benzenesulfonyl)-piperazin-1-yl]-pyrazol-1-yl}-acetic acid]: the IC50 in assay [1] and in assay [2] was 100 to 1000 nM in each case.

As for `CCCc1ccc(CNC(=O)[C@H]2CN(c3cc(C)c(C(N)=O)nn3)CCN2S(=O)(=O)c2ccc(OC(F)(F)F)cc2)cc1` [Example 494, 4-methyl-6-[(R)-3-(4-propyl-benzylcarbamoyl)-4-(4-trifluoromethoxy-benzenesulfonyl)-piperazin-1-yl]-pyridazine-3-carboxylic acid amide], the IC50 in assay [1] and in assay [2] was less than 100 nM throughout.

As for `CCC(F)(F)c1ccc(CNC(=O)[C@H]2CN(C(=O)Nc3nnc(C(=O)N4CC[C@@H](O)C4)s3)CCN2S(=O)(=O)c2ccc(OC(F)(F)F)cc2)cc1` [Example 495, (R)-4-(4-trifluoromethoxy-benzenesulfonyl)-piperazine-1,3-dicarboxylic acid 3-[4-(1,1-difluoro-propyl)-benzylamide] 1-{[5-((R)-3-hydroxy-pyrrolidine-1-carbonyl)-[1,3,4]thiadiazol-2-yl]-amide}], the IC50 was more than 1000 nM in assay [1] and 100 to 1000 nM in assay [2].

Consider `CCC(F)(F)c1ccc(CNC(=O)[C@H]2CN(C(=O)Nc3nnc(C(=O)N4CCC(O)CC4)s3)CCN2S(=O)(=O)c2ccc(OC(F)(F)F)cc2)cc1` [Example 496, (R)-4-(4-trifluoromethoxy-benzenesulfonyl)-piperazine-1,3-dicarboxylic acid 3-[4-(1,1-difluoro-propyl)-benzylamide] 1-{[5-(4-hydroxy-piperidine-1-carbonyl)-[1,3,4]thiadiazol-2-yl]-amide}], for which the IC50 in assay [1] and in assay [2] was more than 1000 nM in each case.

For the compound `CCC(F)(F)c1ccc(CNC(=O)[C@H]2CN(C(=O)Nc3nnc(C(=O)N4CCOCC4)s3)CCN2S(=O)(=O)c2ccc(OC(F)(F)F)cc2)cc1` [Example 497, (R)-4-(4-trifluoromethoxy-benzenesulfonyl)-piperazine-1,3-dicarboxylic acid 3-[4-(1,1-difluoro-propyl)-benzylamide] 1-{[5-(morpholine-4-carbonyl)-[1,3,4]thiadiazol-2-yl]-amide}], the half-maximal inhibitory concentration (IC50) in assay [1] and in assay [2] was more than 1000 nM in each case.

In the case of `CCC(F)(F)c1ccc(CNC(=O)[C@H]2CN(C(=O)Cc3cn(C)cn3)CCN2S(=O)(=O)c2ccc(OC(F)(F)F)cc2)cc1` [Example 498, (R)-4-[2-(1-methyl-1H-imidazol-4-yl)-acetyl]-1-(4-trifluoromethoxy-benzenesulfonyl)-piperazine-2-carboxylic acid 4-(1,1-difluoro-propyl)-benzylamide], the IC50 in assay [1] and in assay [2] was 100 to 1000 nM in each case.

Take `CCCc1ccc(CNC(=O)[C@H]2CN(c3nc(C)c(C(=O)O)s3)CCN2S(=O)(=O)c2ccc(OC(F)(F)F)c(CCC)c2)cc1` [Example 499, 4-methyl-2-[(R)-3-(4-propyl-benzylcarbamoyl)-4-(3-propyl-4-trifluoromethoxy-benzenesulfonyl)-piperazin-1-yl]-thiazole-5-carboxylic acid]: the IC50 in assay [1] and in assay [2] was less than 100 nM each time.

For the compound `CC(C)(C)c1ccc(CNC(=O)[C@H]2CN(C(=O)Cc3ccncc3)CCN2S(=O)(=O)c2ccc(OC(F)(F)F)cc2)cc1` [Example 500, (R)-4-(2-pyridin-4-yl-acetyl)-1-(4-trifluoromethoxy-benzenesulfonyl)-piperazine-2-carboxylic acid 4-tert-butyl-benzylamide], the IC50 in assay [1] and in assay [2] was less than 100 nM throughout.

Turning to `CC(C)(C)c1ccc(CNC(=O)[C@H]2CN(c3cnc(C(=O)O)cn3)CCN2S(=O)(=O)c2ccc(OC(F)(F)F)cc2)cc1` [Example 501, (R)-3-(4-tert-butyl-benzylcarbamoyl)-4-(4-trifluoromethoxy-benzenesulfonyl)-3,4,5,6-tetrahydro-2H-[1,2′]bipyrazinyl-5′-carboxylic acid], the IC50 in assay [1] and in assay [2] was less than 100 nM each time.

On to `CCC(F)(F)c1ccc(CNC(=O)[C@H]2CN(C(=O)Nc3ccnc(C(=O)O)c3)CCN2S(=O)(=O)c2ccc(OC(F)(F)F)cc2)cc1` [Example 502, 4-{[(R)-3-[4-(1,1-difluoro-propyl)-benzylcarbamoyl]-4-(4-trifluoromethoxy-benzenesulfonyl)-piperazine-1-carbonyl]-amino}-pyridine-2-carboxylic acid], for which the IC50 in assay [1] and in assay [2] was 100 to 1000 nM in each case.

`CCC(F)(F)c1ccc(CNC(=O)[C@H]2CN(C(=O)Nc3ccnc(C(N)=O)c3)CCN2S(=O)(=O)c2ccc(OC(F)(F)F)cc2)cc1` [Example 503, (R)-4-(4-trifluoromethoxy-benzenesulfonyl)-piperazine-1,3-dicarboxylic acid 1-[(2-carbamoyl-pyridin-4-yl)-amide] 3-[4-(1,1-difluoro-propyl)-benzylamide]]: the IC50 in assay [1] is 100 to 1000 nM; in assay [2], less than 100 nM.
